Assay results published in BigSolDB 2.1.

A solubility (mole fraction) (in 2-butanone, 278.15 K) of 0.11, a solubility (mole fraction) (in 2-butanone, 280.65 K) of 0.116 and a solubility (mole fraction) (in 2-butanone, 283.15 K) of 0.121 were found for `CC(C)c1ncc[nH]1` in this work. It also gave a solubility (mole fraction) (in 2-butanone, 285.65 K) of 0.127, a solubility (mole fraction) (in 2-butanone, 288.15 K) of 0.133 and a solubility (mole fraction) (in 2-butanone, 290.65 K) of 0.139. The solubility (mole fraction) (in 2-butanone, 293.15 K) was 0.145, the solubility (mole fraction) (in 2-butanone, 295.65 K) was 0.152 and the solubility (mole fraction) (in 2-butanone, 298.15 K) was 0.159. The solubility (mole fraction) (in 2-butanone, 300.65 K) was 0.167, the solubility (mole fraction) (in 2-butanone, 303.15 K) was 0.177 and the solubility (mole fraction) (in 2-butanone, 305.65 K) was 0.185. It also gave a solubility (mole fraction) (in 2-butanone, 308.15 K) of 0.194, a solubility (mole fraction) (in 2-butanone, 310.65 K) of 0.203 and a solubility (mole fraction) (in 2-butanone, 313.15 K) of 0.213. The solubility (mole fraction) (in acetone, 278.15 K) was 0.0906, the solubility (mole fraction) (in acetone, 280.65 K) was 0.0946 and the solubility (mole fraction) (in acetone, 283.15 K) was 0.0988. The solubility (mole fraction) (in acetone, 285.65 K) was 0.103, the solubility (mole fraction) (in acetone, 288.15 K) was 0.108 and the solubility (mole fraction) (in acetone, 290.65 K) was 0.111. For the same compound, the solubility (mole fraction) (in acetone, 293.15 K) was 0.116, the solubility (mole fraction) (in acetone, 295.65 K) was 0.121 and the solubility (mole fraction) (in acetone, 298.15 K) was 0.127. It also gave a solubility (mole fraction) (in acetone, 300.65 K) of 0.133, a solubility (mole fraction) (in acetone, 303.15 K) of 0.14 and a solubility (mole fraction) (in acetone, 305.65 K) of 0.146. It also gave a solubility (mole fraction) (in acetone, 308.15 K) of 0.153, a solubility (mole fraction) (in acetone, 310.65 K) of 0.159 and a solubility (mole fraction) (in acetone, 313.15 K) of 0.166. The solubility (mole fraction) (in acetonitrile, 278.15 K) was 0.0259, the solubility (mole fraction) (in acetonitrile, 280.65 K) was 0.0275 and the solubility (mole fraction) (in acetonitrile, 283.15 K) was 0.0291. It also gave a solubility (mole fraction) (in acetonitrile, 285.65 K) of 0.0308, a solubility (mole fraction) (in acetonitrile, 288.15 K) of 0.0325 and a solubility (mole fraction) (in acetonitrile, 290.65 K) of 0.0343. It also gave a solubility (mole fraction) (in acetonitrile, 293.15 K) of 0.0361, a solubility (mole fraction) (in acetonitrile, 295.65 K) of 0.0379 and a solubility (mole fraction) (in acetonitrile, 298.15 K) of 0.0401. It also gave a solubility (mole fraction) (in acetonitrile, 300.65 K) of 0.0427, a solubility (mole fraction) (in acetonitrile, 303.15 K) of 0.0453 and a solubility (mole fraction) (in acetonitrile, 305.65 K) of 0.0481. The solubility (mole fraction) (in acetonitrile, 308.15 K) was 0.0509, the solubility (mole fraction) (in acetonitrile, 310.65 K) was 0.0538 and the solubility (mole fraction) (in acetonitrile, 313.15 K) was 0.0568. For the same compound, the solubility (mole fraction) (in ethanol, 278.15 K) was 0.189, the solubility (mole fraction) (in ethanol, 280.65 K) was 0.196 and the solubility (mole fraction) (in ethanol, 283.15 K) was 0.203. For the same compound, the solubility (mole fraction) (in ethanol, 285.65 K) was 0.21, the solubility (mole fraction) (in ethanol, 288.15 K) was 0.216 and the solubility (mole fraction) (in ethanol, 290.65 K) was 0.226. For the same compound, the solubility (mole fraction) (in ethanol, 293.15 K) was 0.235, the solubility (mole fraction) (in ethanol, 295.65 K) was 0.243 and the solubility (mole fraction) (in ethanol, 298.15 K) was 0.253. For the same compound, the solubility (mole fraction) (in ethanol, 300.65 K) was 0.263, the solubility (mole fraction) (in ethanol, 303.15 K) was 0.273 and the solubility (mole fraction) (in ethanol, 305.65 K) was 0.282. The solubility (mole fraction) (in ethanol, 308.15 K) was 0.294, the solubility (mole fraction) (in ethanol, 310.65 K) was 0.304 and the solubility (mole fraction) (in ethanol, 313.15 K) was 0.315. It also gave a solubility (mole fraction) (in ethyl acetate, 278.15 K) of 0.0519, a solubility (mole fraction) (in ethyl acetate, 280.65 K) of 0.0556 and a solubility (mole fraction) (in ethyl acetate, 283.15 K) of 0.0588. For the same compound, the solubility (mole fraction) (in ethyl acetate, 285.65 K) was 0.0626, the solubility (mole fraction) (in ethyl acetate, 288.15 K) was 0.066 and the solubility (mole fraction) (in ethyl acetate, 290.65 K) was 0.0697. For the same compound, the solubility (mole fraction) (in ethyl acetate, 293.15 K) was 0.0737, the solubility (mole fraction) (in ethyl acetate, 295.65 K) was 0.0778 and the solubility (mole fraction) (in ethyl acetate, 298.15 K) was 0.0826. The solubility (mole fraction) (in ethyl acetate, 300.65 K) was 0.0883, the solubility (mole fraction) (in ethyl acetate, 303.15 K) was 0.0939 and the solubility (mole fraction) (in ethyl acetate, 305.65 K) was 0.0994. For the same compound, the solubility (mole fraction) (in ethyl acetate, 308.15 K) was 0.105, the solubility (mole fraction) (in ethyl acetate, 310.65 K) was 0.112 and the solubility (mole fraction) (in ethyl acetate, 313.15 K) was 0.118. The solubility (mole fraction) (in isopropanol, 278.15 K) was 0.0738, the solubility (mole fraction) (in isopropanol, 280.65 K) was 0.0768 and the solubility (mole fraction) (in isopropanol, 283.15 K) was 0.0801. For the same compound, the solubility (mole fraction) (in isopropanol, 285.65 K) was 0.0825, the solubility (mole fraction) (in isopropanol, 288.15 K) was 0.0856 and the solubility (mole fraction) (in isopropanol, 290.65 K) was 0.0883. The solubility (mole fraction) (in isopropanol, 293.15 K) was 0.0927, the solubility (mole fraction) (in isopropanol, 295.65 K) was 0.0965 and the solubility (mole fraction) (in isopropanol, 298.15 K) was 0.101. It also gave a solubility (mole fraction) (in isopropanol, 300.65 K) of 0.105, a solubility (mole fraction) (in isopropanol, 303.15 K) of 0.11 and a solubility (mole fraction) (in isopropanol, 305.65 K) of 0.115. It also gave a solubility (mole fraction) (in isopropanol, 308.15 K) of 0.121, a solubility (mole fraction) (in isopropanol, 310.65 K) of 0.126 and a solubility (mole fraction) (in isopropanol, 313.15 K) of 0.132. The solubility (mole fraction) (in methanol, 278.15 K) was 0.224, the solubility (mole fraction) (in methanol, 280.65 K) was 0.233 and the solubility (mole fraction) (in methanol, 283.15 K) was 0.242. For the same compound, the solubility (mole fraction) (in methanol, 285.65 K) was 0.252, the solubility (mole fraction) (in methanol, 288.15 K) was 0.263 and the solubility (mole fraction) (in methanol, 290.65 K) was 0.274. For the same compound, the solubility (mole fraction) (in methanol, 293.15 K) was 0.285, the solubility (mole fraction) (in methanol, 295.65 K) was 0.297 and the solubility (mole fraction) (in methanol, 298.15 K) was 0.31. It also gave a solubility (mole fraction) (in methanol, 300.65 K) of 0.322, a solubility (mole fraction) (in methanol, 303.15 K) of 0.334 and a solubility (mole fraction) (in methanol, 305.65 K) of 0.348. For the same compound, the solubility (mole fraction) (in methanol, 308.15 K) was 0.361, the solubility (mole fraction) (in methanol, 310.65 K) was 0.376 and the solubility (mole fraction) (in methanol, 313.15 K) was 0.39. For the same compound, the solubility (mole fraction) (in n-propanol, 278.15 K) was 0.0999, the solubility (mole fraction) (in n-propanol, 280.65 K) was 0.104 and the solubility (mole fraction) (in n-propanol, 283.15 K) was 0.109. For the same compound, the solubility (mole fraction) (in n-propanol, 285.65 K) was 0.114, the solubility (mole fraction) (in n-propanol, 288.15 K) was 0.117 and the solubility (mole fraction) (in n-propanol, 290.65 K) was 0.121. It also gave a solubility (mole fraction) (in n-propanol, 293.15 K) of 0.126, a solubility (mole fraction) (in n-propanol, 295.65 K) of 0.133 and a solubility (mole fraction) (in n-propanol, 298.15 K) of 0.139. The solubility (mole fraction) (in n-propanol, 300.65 K) was 0.146, the solubility (mole fraction) (in n-propanol, 303.15 K) was 0.153 and the solubility (mole fraction) (in n-propanol, 305.65 K) was 0.159. For the same compound, the solubility (mole fraction) (in n-propanol, 308.15 K) was 0.166, the solubility (mole fraction) (in n-propanol, 310.65 K) was 0.173 and the solubility (mole fraction) (in n-propanol, 313.15 K) was 0.18. For the same compound, the solubility (mole fraction) (in toluene, 278.15 K) was 0.0215, the solubility (mole fraction) (in toluene, 280.65 K) was 0.0225 and the solubility (mole fraction) (in toluene, 283.15 K) was 0.0237. It also gave a solubility (mole fraction) (in toluene, 285.65 K) of 0.0248, a solubility (mole fraction) (in toluene, 288.15 K) of 0.026 and a solubility (mole fraction) (in toluene, 290.65 K) of 0.0272. It also gave a solubility (mole fraction) (in toluene, 293.15 K) of 0.0287, a solubility (mole fraction) (in toluene, 295.65 K) of 0.0302 and a solubility (mole fraction) (in toluene, 298.15 K) of 0.0318. For the same compound, the solubility (mole fraction) (in toluene, 300.65 K) was 0.0336, the solubility (mole fraction) (in toluene, 303.15 K) was 0.0355 and the solubility (mole fraction) (in toluene, 305.65 K) was 0.0374. It also gave a solubility (mole fraction) (in toluene, 308.15 K) of 0.0394, a solubility (mole fraction) (in toluene, 310.65 K) of 0.0416 and a solubility (mole fraction) (in toluene, 313.15 K) of 0.0437.
